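Assay format: 96-well plates, 48-hour exposure. GI50 marks 50% less growth. Definition used: TGI = concentration required for complete inhibition of growth.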
Assays:
Assay in all cases: NCI anticancer screen, dose series, 48 h
[1] = tested on: COLO 205 colon
[2] = tested on: SK-MEL-28 melanoma
[3] = tested on: U251 CNS
[4] = tested on: OVCAR-8 ovarian
[5] = tested on: RPMI-8226 leukemia
[6] = tested on: NCI-H23 lung
[7] = tested on: UACC-62 melanoma
[8] = tested on: NCI-H460 lung
[9] = tested on: NCI/ADR-RES ovarian
[10] = tested on: HS 578T breast

SMILES	TGI [1]	TGI [2]	TGI [3]	TGI [4]	TGI [5]	TGI [6]	TGI [7]	TGI [8]	GI50 [1]	GI50 [2]	GI50 [9]	TGI [9]	GI50 [3]	GI50 [10]	TGI [10]	GI50 [4]	GI50 [6]	GI50 [7]	GI50 [8]	GI50 [5]
COc1cc([C@H]2c3cc4c(cc3[C@H](NCc3ccc(F)cc3)C3COC(=O)[C@H]32)OCO4)cc(OC)c1O (stereo partly specified)	31.5 µM	37 µM	4.35 µM	35.1 µM	18.2 µM	6.34 µM	6.68 µM	12.3 µM												
O=C(Nc1c(Cl)cc([N+](=O)[O-])cc1Cl)C(=O)C(C(=O)c1ccncc1)C1OC(=O)c2ccccc21 (stereo unspecified)	> 100 µM	> 100 µM	> 100 µM	> 100 µM	> 100 µM	> 100 µM	> 100 µM	> 100 µM												
COc1cc2c(c(OC)c1OC)-c1ccc(SC)c(=O)cc1C(CC(=O)Oc1ccccc1F)C2 (stereo unspecified)	0.0376 µM	> 7.5 µM	0.108 µM	> 7.5 µM	> 7.5 µM	0.0894 µM	0.0688 µM	> 7.5 µM												
C#CCN(CCCOc1ccc(Cl)cc1Cl)CCCSC(=O)CCCCCN1/C(=C\C=C2/CCCC(/C=C/C3=[N+](CCCCCC(=O)[O-])c4ccccc4C3(C)C)=C2Cl)C(C)(C)c2ccccc21	3.39 µM	2.43 µM	2.11 µM	6.83 µM		5.09 µM	3.14 µM	5.01 µM	1.41 µM	0.708 µM	20.2 µM	62.3 µM	0.733 µM	1.47 µM	6.4 µM	1.99 µM	1.94 µM	1.15 µM	1.77 µM	
COc1ccc(C2NC(c3ccc(OC)cc3)C(C)C(=O)C2C)cc1 (stereo unspecified)	> 100 µM	> 100 µM	> 100 µM	> 100 µM	> 100 µM	> 100 µM	> 100 µM	> 100 µM												
Cc1cc(N(CCC#N)CCC#N)ccc1/C=C1N=C(/C=C\c2ccccc2)N(c2ccc(C(=O)O)cc2)C\1=O	> 100 µM	> 100 µM	> 100 µM	> 100 µM	> 100 µM	> 100 µM	> 100 µM	> 100 µM												
O=C(/C=N/O)Nc1cccc(Cl)c1I	> 100 µM	> 100 µM	> 100 µM	> 100 µM	> 100 µM	> 100 µM	> 100 µM	> 100 µM												
Cc1ccc(-n2cc(/C(N)=N/O)c3ccccc3c2=O)cc1	> 100 µM	> 100 µM	> 100 µM	> 100 µM	> 100 µM	> 100 µM	> 100 µM	> 100 µM												
Nc1nc2c([nH]1)c1[nH]c3ccccc3c1c1[nH]c3ccccc3c21		23.7 µM	14.3 µM	23.7 µM	28.3 µM	29.5 µM	30 µM			11.5 µM	18.9 µM	45.1 µM	3.99 µM	20.4 µM	53.9 µM	4.56 µM	13.7 µM	15.9 µM		9.83 µM
c1ccc2c(c1)n1nnnc1c1nnnn21	> 100 µM	> 100 µM	> 100 µM	> 100 µM	> 100 µM	> 100 µM	> 100 µM	> 100 µM												
COc1cc(COC(=O)N(C)[C@@H](Cc2ccccc2)C(=O)O)c([N+](=O)[O-])cc1OC			> 100 µM	> 100 µM	> 100 µM	> 100 µM	> 100 µM	> 100 µM				> 100 µM			> 100 µM					

Reference: PubChem BioAssay (NCI)
